Numbers after ± are expanded uncertainties.
Key:
[1] = DTA
[2] = molar heat capacity at constant pressure; conditions: 101.33 kPa, Liquid, Large sample (1 g) DSC

CCCC[n+]1cccc(C)c1.O=S(=O)([N-]S(=O)(=O)C(F)(F)F)C(F)(F)F
Conditions | Glass transition temperature [°C] | molar heat capacity at constant pressure [J/K/mol]
[1], Glass | -85 ± 2 | –
[2], 293.15 K | – | 541 ± 55
[2], 294.15 K | – | 542 ± 55
[2], 295.15 K | – | 544 ± 55
[2], 296.15 K | – | 546 ± 55
[2], 297.15 K | – | 547 ± 55
[2], 298.15 K | – | 548 ± 55
[2], 299.15 K | – | 550 ± 56
[2], 300.15 K | – | 551 ± 56
[2], 301.15 K | – | 552 ± 56
[2], 302.15 K | – | 553 ± 56
[2], 303.15 K | – | 554 ± 56
[2], 304.15 K | – | 555 ± 56
[2], 305.15 K | – | 556 ± 56
[2], 306.15 K | – | 557 ± 56
[2], 307.15 K | – | 558 ± 56
[2], 308.15 K | – | 559 ± 56
[2], 309.15 K | – | 560 ± 57
[2], 310.15 K | – | 561 ± 57
[2], 311.15 K | – | 562 ± 57
[2], 312.15 K | – | 563 ± 57
[2], 313.15 K | – | 564 ± 57
[2], 314.15 K | – | 564 ± 57
[2], 315.15 K | – | 565 ± 57
[2], 316.15 K | – | 566 ± 57
[2], 317.15 K | – | 567 ± 57
[2], 318.15 K | – | 568 ± 57
[2], 319.15 K | – | 569 ± 57
[2], 320.15 K | – | 570 ± 58
[2], 321.15 K | – | 570 ± 58
[2], 322.15 K | – | 571 ± 58
[2], 323.15 K | – | 572 ± 58
[2], 324.15 K | – | 573 ± 58
[2], 325.15 K | – | 574 ± 58
[2], 326.15 K | – | 575 ± 58
[2], 327.15 K | – | 576 ± 58
[2], 328.15 K | – | 577 ± 58
[2], 329.15 K | – | 578 ± 58
[2], 330.15 K | – | 579 ± 59
[2], 331.15 K | – | 580 ± 59
[2], 332.15 K | – | 581 ± 59
[2], 333.15 K | – | 582 ± 59

CCCCn1cc[n+](C)c1.O=S(=O)([O-])C(F)(F)F [1-butyl-3-methylimidazolium trifluoromethanesulfonate]
Conditions | Normal melting temperature [°C] | molar heat capacity at constant pressure [J/K/mol]
[1], Crystal | 12 ± 1 | –
[2], 323.15 K | – | 456 ± 46
[2], 324.15 K | – | 457 ± 46
[2], 325.15 K | – | 458 ± 46
[2], 326.15 K | – | 459 ± 46
[2], 327.15 K | – | 460 ± 47
[2], 328.15 K | – | 461 ± 47
[2], 329.15 K | – | 462 ± 47
[2], 330.15 K | – | 463 ± 47
[2], 331.15 K | – | 464 ± 47
[2], 332.15 K | – | 465 ± 47
[2], 333.15 K | – | 466 ± 47
[2], 334.15 K | – | 467 ± 47
[2], 335.15 K | – | 467 ± 47
[2], 336.15 K | – | 468 ± 47
[2], 337.15 K | – | 469 ± 47
[2], 338.15 K | – | 470 ± 48
[2], 339.15 K | – | 471 ± 48
[2], 340.15 K | – | 472 ± 48
[2], 341.15 K | – | 473 ± 48
[2], 342.15 K | – | 474 ± 48
[2], 343.15 K | – | 475 ± 48
[2], 344.15 K | – | 476 ± 48
[2], 345.15 K | – | 477 ± 48
[2], 346.15 K | – | 477 ± 48
[2], 347.15 K | – | 478 ± 48
[2], 348.15 K | – | 479 ± 48
[2], 349.15 K | – | 480 ± 49
[2], 350.15 K | – | 481 ± 49
[2], 351.15 K | – | 481 ± 49
[2], 352.15 K | – | 482 ± 49
[2], 353.15 K | – | 483 ± 49

— the NIST ThermoML archive (doi:10.1016/j.tca.2013.05.007)
